Entries after “also recorded” stand apart in the source; their conditions may differ.
Tests used:
[1] = Compression studies of solid forms; conditions: 2000 psi for at least one minute
[2] = Stability studies of solid forms; assay type: physicochemical
Procedure: Stability Studies. The stabilities of Forms A, B, C and D were studied by exposing the solid samples to the stress condition of 40° C./75% RH for four weeks. Moreover, the stabilities of Forms A, B, C and D in different solvents were studied by equilibration in different solvents at 40° C. for four weeks. The slurries then were filtered and dried in the air. Solid samples obtained from the stability experiments were analyzed by XRPD and DSC.

[3] = Hygroscopicity (DVS moisture sorption/desorption) studies; assay type: physicochemical; conditions: for hygroscopicity / XRPD pattern / solid form after full adsorption/desorption cycle: DVS; for hygroscopicity: 0-95% RH; for XRPD pattern / solid form after full adsorption/desorption cycle: 0-95-0% RH; for moisture sorption mass change of the starting mass: RH increased from about 0% to about 95% RH, about 25° C.
Procedure: Hygroscopicity studies. The hygroscopicity of various solid forms was studied using a Surface Measurement Systems DVS instrument. Typically a sample size of between about 10-50 mg was loaded into the DVS instrument sample pan and the sample was analyzed on a DVS automated sorption analyzer at about 25° C. The relative humidity was increased in increments of about 10% from about 0% to about 95% RH. The relative humidity was then decreased in a similar manner to accomplish a full adsorption/desorption cycle. The mass was recorded at periodic intervals throughout the experiment.

[4] = Interconversion studies of solid forms; assay type: physicochemical; conditions: EQ in acetone:ethanol (1:1) at 25° C., at least 2 days
Procedure: Interconversion Studies. Interconversion experiments were performed by making slurries of a solid form in a saturated solvent. The slurries were agitated for at least 2 days at about 25° C. The saturated solution was removed by filtration and the solid was dried in the air.

| Compound | physical stability upon compression (XRPD) [1] | Stability: Analysis by XRPD (solid form after stress) ([2]; 40° C./75% RH, 4 weeks) | Stability: Appearance ([2]; 40° C./75% RH, 4 weeks) | Stability: Analysis by XRPD (solid form after equilibration) ([2]; EQ in ethanol at 40° C. for 4 weeks) | Stability: Analysis by XRPD (solid form after equilibration) ([2]; EQ in heptane at 40° C. for 4 weeks) | Stability: Analysis by XRPD (solid form after equilibration) ([2]; EQ in water at 40° C. for 4 weeks) | hygroscopicity [3] | XRPD pattern / solid form after full adsorption/desorption cycle [3] | moisture sorption mass change of the starting mass [3] | Interconversion: Analysis by XRPD (solid form after equilibration) [4] |
| --- | --- | --- | --- | --- | --- | --- | --- | --- | --- | --- |
| CCOc1cc(C(CS(C)(=O)=O)N2C(=O)c3cccc(NC(C)=O)c3C2=O)ccc1OC (single isomer, unassigned; (+)) [Form B, (+)-2-[1-(3-ethoxy-4-methoxyphenyl)-2-methylsulfonylethyl]-4-acetylaminoisoindoline-1,3-dione] | substantially physically stable | stable; also recorded: Form B | White solid | stable; also recorded: Form B | stable; also recorded: Form B | stable; also recorded: Form B | substantially nonhygroscopic | substantially unchanged; also recorded: none of the forms analyzed underwent substantial solid-state transformation | about 0.6% | – |
| CCOc1cc(C(CS(C)(=O)=O)N2C(=O)c3cccc(NC(C)=O)c3C2=O)ccc1OC (single isomer, unassigned; (+)) [Form E, (+)-2-[1-(3-ethoxy-4-methoxyphenyl)-2-methylsulfonylethyl]-4-acetylaminoisoindoline-1,3-dione] | – | – | – | – | – | – | hygroscopic | substantially unchanged; also recorded: none of the forms analyzed underwent substantial solid-state transformation | about 5.1% | Form B |
| CCOc1cc(C(CS(C)(=O)=O)N2C(=O)c3cccc(NC(C)=O)c3C2=O)ccc1OC (single isomer, unassigned; (+)) [Form F, (+)-2-[1-(3-ethoxy-4-methoxyphenyl)-2-methylsulfonylethyl]-4-acetylaminoisoindoline-1,3-dione] | – | – | – | – | – | – | substantially nonhygroscopic | substantially unchanged; also recorded: none of the forms analyzed underwent substantial solid-state transformation | about 0.2% | stable; also recorded: Form F |
| CCOc1cc(C(CS(C)(=O)=O)N2C(=O)c3cccc(NC(C)=O)c3C2=O)ccc1OC (single isomer, unassigned; (+)) [Form G, (+)-2-[1-(3-ethoxy-4-methoxyphenyl)-2-methylsulfonylethyl]-4-acetylaminoisoindoline-1,3-dione] | – | – | – | – | – | – | substantially nonhygroscopic | substantially unchanged; also recorded: none of the forms analyzed underwent substantial solid-state transformation | about 0.4% | converts to Form B |

— patent US8629173B2, “Solid forms comprising (+)-2-[1-(3-ethoxy-4-methoxyphenyl)-2-methylsulfonylethyl]-4-acetylaminoisoindoline-1,3-dione, compositions thereof, and uses thereof” (Celgene Corporation, priority 2002, dated 2014)
